The record followed here is patent US7135480B2, “Substituted 1-benzoyl-3-cyano-pyrrolo [1,2-a] quinolines and analogs as activators of caspases and inducers of apoptosis” (Cytovia, Inc., priority 2002, dated 2006).

Where two headings read alike, the source gives them in different places. A value given as a limit tells only on which side of the number the result lay.

The test system of experiment [1] is T-47D. Description: Caspase cascade activation assay (N-(Ac-DEVD)-N'-ethoxycarbonyl-R110 fluorogenic substrate) in T-47D cells. Format: cell-based, Human. The settings on record: for EC50: read-out: Caspase potency EC50; for Caspase activity (Ratio): ratio of net RFU of compound to control, 0.16 to 10 μM final. The procedure: (§1) Human breast cancer cell lines T-47D and ZR-75-1 were grown according to media component mixtures designated by American Type Culture Collection +10% FCS (Invitrogen Corporation), in a 5% CO2–95% humidity incubator at 37° C. T-47D and ZR-75-1 cells were maintained at a cell density between 30 and 80% confluency and for HL-60 at a cell density of 0.1 to 0.6×10^6 cells/mL. Cells were harvested at 600×g and resuspended at 0.65×10^6 cells/mL into appropriate media +10% FCS. An aliquot of 45 μL of cells was added to a well of a 96-well microtiter plate containing 5 μL of a 10% DMSO in RPMI-1640 media solution containing 1.6 to 100 μM of 1-benzoyl-3-cyano-pyrrolo[1,2-a]quinoline or other test compound (0.16 to 10 μM final). An aliquot of 45 μL of cells was added to a well of a 96-well microtiter plate containing 5 μL of a 10% DMSO in RPMI-1640 media solution without test compound as the control sample. The samples were mixed by agitation and then incubated at 37° C. for 24 h in a 5% CO2–95% humidity incubator. After incubation, the samples were removed from the incubator and 50 μL of a solution containing 20 μM of N-(Ac-DEVD)-N′-ethoxycarbonyl-R110 fluorogenic substrate (SEQ ID NO:1) (Cytovia, Inc.; U.S. Pat. No. 6,335,429), 20% sucrose (Sigma), 20 mM DTT (Sigma), 200 mM NaCl (Sigma), 40 mM Na PIPES buffer pH 7.2 (Sigma), and 500 μg/mL lysolecithin (Calbiochem) was added. The samples were mixed by agitation and incubated at room temperature. Using a fluorescent plate reader (Model 1420 Wallac Instruments), an initial reading (T=0) was made approximately 1–2 min after addition of the substrate solution, employing excitation at 485 nm and emission at 530 nm, to determine the background fluorescence of the control sample. After approximately 3 h of incubation, the samples were read for fluorescence as above (T=3 h).
(§2) The Relative Fluorescence Unit values (RFU) were used to calculate the sample readings as follows: RFU(T=3h)−Control RFU(T=0)=Net RFU(T=3h)
(§3) The activity of caspase cascade activation was determined by the ratio of the net RFU value for 1-benzoyl-3-cyano-pyrrolo[1,2-a]quinoline to that of control samples. The EC50 (nM) was determined by a sigmoidal dose-response calculation (Prism 2.0, GraphPad Software Inc.).

Experiment [2] deals with ZR-75-1. Description: Caspase cascade activation assay (N-(Ac-DEVD)-N'-ethoxycarbonyl-R110 fluorogenic substrate) in ZR-75-1 cells. It counts as cell-based, Human. The settings on record: for EC50: read-out: Caspase potency EC50; for Caspase activity (Ratio): ratio of net RFU of compound to control, 0.16 to 10 μM final. The procedure: as §1, §2, §3
Experiment [3] concerns T-47D. Description: Inhibition of cell proliferation (GI50, CellTiter 96 AQueous One Solution) in T-47D cells. Format: cell-based, Human. The settings on record: read-out: GI50 (dose for 50% inhibition of cell proliferation). The procedure:
(§4) T-47D and SKBr-3 cells were grown and harvested as in Example 84. An aliquot of 90 μL of cells (2.2×10^4 cells/mL) was added to a well of a 96-well microtiter plate containing 10 μl of a 10% DMSO in RPMI-1640 media solution containing 1 nM to 100 μM of 1-benzoyl-3-cyano-pyrrolo[1,2-a]quinoline (0.1 nM to 10 μM final). An aliquot of 90 μL of cells was added to a well of a 96-well microtiter plate containing 10 μL of a 10% DMSO in RPMI-1640 media solution without compound as the control sample for maximal cell proliferation (AMax). The samples were mixed by agitation and then incubated at 37° C. for 48 h in a 5% CO2–95% humidity incubator. After incubation, the samples were removed from the incubator and 20 μL of CellTiter 96 AQUEOUS One Solution Cell Proliferation™ reagent (Promega) was added. The samples were mixed by agitation and incubated at 37° C. for 2–4 h in a 5% CO2–95% humidity incubator. Using an absorbance plate reader (Model 1420 Wallac Instruments), an initial reading (T=0) was made approximately 1–2 min after addition of the solution, employing absorbance at 490 nm. This determines the possible background absorbance of the test compounds. No absorbance for 1-benzoyl-3-cyano-pyrrolo[1,2-a]quinoline was found at 490 nm. After the 2–4 h incubation, the samples were read for absorbance as above (ATest).
(§5) Baseline for GI50 (dose for 50% inhibition of cell proliferation) of initial cell numbers were determined by adding an aliquot of 90 μL of cells or 90 μL of media, respectively, to wells of a 96-well microtiter plate containing 10 μL of a 10% DMSO in RPMI-1640 media solution. The samples were mixed by agitation and then incubated at 37° C. for 0.5 h in a 5% CO2–95% humidity incubator. After incubation, the samples were removed from the incubator and 20 μL of CellTiter 96 AQUEOUS One Solution Cell Proliferation ™ reagent (Promega) was added. The samples were mixed by agitation and incubated at 37° C. for 2–4 h in a 5% CO2–95% humidity incubator. Absorbance was read as above, (AStart) defining absorbance for initial cell number used as baseline in GI50 determinations. […]

In experiment [4] the test system is SKBr-3. As to the kind of experiment: Inhibition of cell proliferation (GI50, CellTiter 96 AQueous One Solution) in SKBr-3 cells. It counts as cell-based. The following applies: read-out: GI50 (dose for 50% inhibition of cell proliferation). As for the experimental part: as §4, §5
Where [5] appears, read: Homo sapiens, T47D, T-47D, 24 h incubation, sigmoidal dose-response.
Where [6] appears, read: Homo sapiens, ZR-75-1, 24 h incubation, sigmoidal dose-response.

With `N#Cc1cc(C(=O)c2ccc(N3CCCC3)cc2)n2c1ccc1ccccc12` [Example 1, 3-Cyano-1-(4-pyrrolidin-1-yl-benzoyl)-pyrrolo[1,2-a]quinoline], the half-maximal effective concentration (EC50) in experiment [1] (setting [5]) came out at 0.157 µM; in experiment [2] (setting [6]), 0.133 µM. Also, the “Caspase activity (Ratio)” value in experiment [1] (T-47D, 24 h incubation) turned out to be 10; in experiment [2] (ZR-75-1, 24 h incubation), 7. The GI50 was 0.036 µM in experiment [3] (Homo sapiens, T47D, T-47D, 48 h incubation) and 0.042 µM in experiment [4] (Homo sapiens, SK-BR-3, SKBR-3, 48 h incubation).

For the compound `N#Cc1cc(C(=O)c2ccccc2)n2c3c(ccc12)CCCC3` [Example 2, 1-Benzoyl-3-cyano-6,7,8,9-tetrahydro-pyrrolo[1,2-a]quinoline], the EC50 in experiment [1] (setting [5]) was more than 10 µM; in experiment [2] (setting [6]), 5.3 µM. In addition, the “Caspase activity (Ratio)” value in experiment [1] (T-47D, 24 h incubation) is given as 1; in experiment [2] (ZR-75-1, 24 h incubation), 2.

As for `N#Cc1cc(C(=O)c2ccccc2)n2ccccc12` [Example 3, 3-Benzoyl-1-cyano-indolizine], the EC50 in experiment [1] (setting [5]) and in experiment [2] (setting [6]) was more than 10 µM each time. Further, the “Caspase activity (Ratio)” value in experiment [1] (T-47D, 24 h incubation) was determined as 1; in experiment [2] (ZR-75-1, 24 h incubation) it was 1.

As for `COc1cccc(C(=O)c2cc(C#N)c3ccc4ccccc4n23)c1` [Example 4, 3-Cyano-1-(3-methoxy-benzoyl)-pyrrollo[1,2-a]quinoline], the EC50 in experiment [1] (T-47D, 24 h incubation, sigmoidal dose-response) was determined as 0.463 µM; in experiment [2] (ZR-75-1, 24 h incubation, sigmoidal dose-response), 0.624 µM. Also, the “Caspase activity (Ratio)” value was 12 in experiment [1] (T-47D, 24 h incubation) and 10 in experiment [2] (ZR-75-1, 24 h incubation). In addition, the GI50 in experiment [3] (T-47D, 48 h incubation) stood at 0.138 µM; in experiment [4] (SKBR-3, 48 h incubation), 0.093 µM.

On to `N#Cc1cc(C(=O)c2cccc(Br)c2)n2c1ccc1ccccc12` [Example 5, 1-(3-Bromo-benzoyl)-3-cyano-pyrrolo[1,2-a]quinoline], for which the EC50 in experiment [2] (setting [6]) was 0.159 µM. Further, in experiment [2] (ZR-75-1, 24 h incubation), the “Caspase activity (Ratio)” value turned out to be 11.

As to `Cc1ccc(C(=O)c2cc(C#N)c3ccc4ccccc4n23)cc1` [Example 6, 3-Cyano-1-(4-methyl-benzoyl)-pyrrolo[1,2-a]quinoline], the EC50 in experiment [1] (setting [5]) was 2.41 µM; in experiment [2] (setting [6]) it was 1.4 µM. Besides, the “Caspase activity (Ratio)” value in experiment [1] (T-47D, 24 h incubation) is 12; in experiment [2] (ZR-75-1, 24 h incubation), 14.

As for `COc1ccc(C(=O)c2cc(C#N)c3ccc4ccccc4n23)cc1` [Example 7, 3-Cyano-1-(4-methoxy-benzoyl)-pyrrolo[1,2-a]quinoline], the values for the EC50 in experiment [1] (setting [5]) and in experiment [2] (setting [6]) were 0.351 µM and 0.185 µM, respectively. For the same compound, the “Caspase activity (Ratio)” value in experiment [1] (T-47D, 24 h incubation) came out at 13; in experiment [2] (ZR-75-1, 24 h incubation) it was 17.

Turning to `N#Cc1cc(C(=O)c2ccc(Cl)cc2)n2c1ccc1ccccc12` [Example 8, 1-(4-Chloro-benzoyl)-3-cyano-pyrrolo[1,2-a]quinoline], the EC50 came to 0.587 µM in experiment [1] (setting [5]) and 2.58 µM in experiment [2] (setting [6]). The “Caspase activity (Ratio)” value was 12 in experiment [1] (T-47D, 24 h incubation) and 11 in experiment [2] (ZR-75-1, 24 h incubation).

Regarding `N#Cc1cc(C(=O)c2ccc(F)cc2)n2c1ccc1ccccc12` [Example 9, 3-Cyano-1-(4-fluoro-benzoyl)-pyrrolo[1,2-a]quinoline], the EC50 in experiment [1] (setting [5]) and in experiment [2] (setting [6]) was 0.15 µM in each case. In addition, the “Caspase activity (Ratio)” value is 12 in experiment [1] (T-47D, 24 h incubation) and 12 in experiment [2] (ZR-75-1, 24 h incubation).

As to `N#Cc1cc(C(=O)c2ccc([N+](=O)[O-])cc2)n2c1ccc1ccccc12` [Example 10, 3-Cyano-1-(4-nitro-benzoyl)-pyrrolo[1,2-a]quinoline], the EC50 in experiment [1] (setting [5]) was found to be 2.19 µM; in experiment [2] (setting [6]), 1.26 µM. The “Caspase activity (Ratio)” value was determined as 6 in experiment [1] (T-47D, 24 h incubation) and 14 in experiment [2] (ZR-75-1, 24 h incubation).

Regarding `N#Cc1cc(C(=O)c2ccc(N)cc2)n2c1ccc1ccccc12` [Example 11, 1-(4-Amino-benzoyl)-3-cyano-pyrrolo[1,2-a]quinoline], the EC50 was 0.148 µM in experiment [1] (setting [5]) and 0.147 µM in experiment [2] (setting [6]). Moreover, the “Caspase activity (Ratio)” value in experiment [1] (T-47D, 24 h incubation) is on record as 17; in experiment [2] (ZR-75-1, 24 h incubation), 15.

With `Cc1cc2c(C#N)cc(C(=O)c3ccccc3)n2c2ccccc12` [Example 12, 1-Benzoyl-3-cyano-5-methyl-pyrrolo[1,2-a]quinoline], the figures for the EC50 in experiment [1] (setting [5]) and in experiment [2] (setting [6]) were 1.16 µM and 0.493 µM, respectively. The “Caspase activity (Ratio)” value came to 14 in experiment [1] (T-47D, 24 h incubation) and 13 in experiment [2] (ZR-75-1, 24 h incubation).

For `Cc1ccc2c(ccc3c(C#N)cc(C(=O)c4ccccc4)n32)c1` [Example 13, 1-Benzoyl-3-cyano-7-methyl-pyrrolo[1,2-a]quinoline], the EC50 was more than 10 µM in experiment [1] (setting [5]) and 5.64 µM in experiment [2] (setting [6]). Further, the “Caspase activity (Ratio)” value in experiment [1] (T-47D, 24 h incubation) amounted to 1; in experiment [2] (ZR-75-1, 24 h incubation), 2.

For the compound `N#Cc1cc(C(=O)c2ccccc2)n2c1ccc1ccccc12` [Example A, 1-benzoyl-3-cyano-pyrrolo[1,2-a]quinoline], the EC50 in experiment [1] (Homo sapiens, T47D, 24 h) came to 0.242 µM; in experiment [2] (Homo sapiens, ZR-75-1, 24 h), 0.243 µM. The “Caspase activity (Ratio)” value in experiment [1] (T-47D, 24 h incubation) was 7; in experiment [2] (ZR-75-1, 24 h incubation) it was 10. In addition, the GI50 in experiment [3] (Homo sapiens, T47D, 48 h) worked out at 0.03 µM; in experiment [4] (Homo sapiens, SK-BR-3, 48 h) it was 0.032 µM.
